According to US20260262643A1, “HERBICIDAL BENZOXAZINES” (FMC CORPORATION, priority 2022, published 2026):

Key:
oat, wild [1] = experiment: Test C preemergence; format: in vivo, Avena fatua; settings: 0 to 100 scale (0 no effect, 100 complete control)
Method in brief: (§1)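 Visual injury score, 0–100 (100 = complete control), taken 10 days after treatment relative to untreated controls. Pre: directed spray onto soil over sown seeds. Post: foliar spray at one- to two-leaf stage, 2–10 cm. Solvent/surfactant formulation; loam–sand soil; greenhouse.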

pigweed, palmer [2] = experiment: Test C preemergence; format: in vivo, Amaranthus palmeri; settings: 0 to 100 scale (0 no effect, 100 complete control)
Method in brief: as §1

corn [3] = experiment: Test C preemergence; format: in vivo, Zea mays; settings: 0 to 100 scale (0 no effect, 100 complete control)
Method in brief: as §1

corn [4] = experiment: Test C postemergence; format: in vivo, Zea mays; settings: 10 days
Method in brief: as §1

galium = experiment: Test C postemergence; format: in vivo, Galium aparine; settings: 10 days
Method in brief: as §1

barnyardgrass [5] = experiment: Test C preemergence; format: in vivo, Echinochloa crusgalli; settings: 0 to 100 scale (0 no effect, 100 complete control)
Method in brief: as §1

barnyardgrass [6] = experiment: Test C postemergence; format: in vivo, Echinochloa crusgalli; settings: 10 days
Method in brief: as §1

ragweed [7] = experiment: Test C preemergence; format: in vivo, Ambrosia artemisiifolia; settings: 0 to 100 scale (0 no effect, 100 complete control)
Method in brief: as §1

rice = experiment: Test D flooded paddy test; format: in vivo, Oryza sativa; settings: 250 g ai/ha, applied to paddy water, visual rating after 13 to 14 days, scale 0 to 100 (0 no effect, 100 complete control)
Method in brief: (§2)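 At the 2-leaf stage, floodwater 3 cm deep received the test compound; that depth persisted throughout. Plants scored visually 13 to 14 days on, 0 (no effect) to 100 (complete control), dash indicating no result.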

kochia [8] = experiment: Test C postemergence; format: in vivo, Bassia scoparia; settings: 10 days
Method in brief: as §1

horseweed = experiment: Test C postemergence; format: in vivo, Erigeron canadensis; settings: 10 days
Method in brief: as §1

wheat [9] = experiment: Test C preemergence; format: in vivo, Triticum aestivum; settings: 0 to 100 scale (0 no effect, 100 complete control)
Method in brief: as §1

ryegrass, Italian [10] = experiment: Test C preemergence; format: in vivo, Lolium multiflorum; settings: 0 to 100 scale (0 no effect, 100 complete control)
Method in brief: as §1

kochia [11] = experiment: Test C preemergence; format: in vivo, Bassia scoparia; settings: 0 to 100 scale (0 no effect, 100 complete control)
Method in brief: as §1

sedge, umbrella = experiment: Test D flooded paddy test; format: in vivo, Cyperus difformis; settings: 250 g ai/ha, applied to paddy water, visual rating after 13 to 14 days, scale 0 to 100 (0 no effect, 100 complete control)
Method in brief: as §2

soybean [12] = experiment: Test C preemergence; format: in vivo, Glycine max; settings: 0 to 100 scale (0 no effect, 100 complete control)
Method in brief: as §1

soybean [13] = experiment: Test C postemergence; format: in vivo, Glycine max; settings: 10 days
Method in brief: as §1

blackgrass [14] = experiment: Test C postemergence; format: in vivo, Alopecurus myosuroides; settings: 10 days
Method in brief: as §1

barnyardgrass [15] = experiment: Test D flooded paddy test; format: in vivo, Echinochloa crus-galli; settings: 250 g ai/ha, applied to paddy water, visual rating after 13 to 14 days, scale 0 to 100 (0 no effect, 100 complete control)
Method in brief: as §2

pigweed, palmer [16] = experiment: Test C postemergence; format: in vivo, Amaranthus palmeri; settings: 10 days
Method in brief: as §1

ducksalad = experiment: Test D flooded paddy test; format: in vivo, Heteranthera limosa; settings: 250 g ai/ha, applied to paddy water, visual rating after 13 to 14 days, scale 0 to 100 (0 no effect, 100 complete control)
Method in brief: as §2

green foxtail [17] = experiment: Test C postemergence; format: in vivo, Setaria viridis; settings: 10 days
Method in brief: as §1

green foxtail [18] = experiment: Test C preemergence; format: in vivo, Setaria viridis; settings: 0 to 100 scale (0 no effect, 100 complete control)
Method in brief: as §1

ryegrass, Italian [19] = experiment: Test C postemergence; format: in vivo, Lolium multiflorum; settings: 10 days
Method in brief: as §1

wheat [20] = experiment: Test C postemergence; format: in vivo, Triticum aestivum; settings: 10 days
Method in brief: as §1

blackgrass [21] = experiment: Test C preemergence; format: in vivo, Alopecurus myosuroides; settings: 0 to 100 scale (0 no effect, 100 complete control)
Method in brief: as §1

oat, wild [22] = experiment: Test C postemergence; format: in vivo, Avena fatua; settings: 10 days
Method in brief: as §1

ragweed [23] = experiment: Test C postemergence; format: in vivo, Ambrosia artemisiifolia; settings: 10 days
Method in brief: as §1

[24] = Preemergence, 500 g ai/ha, visual rating after 10 days
[25] = Test C, preemergence, 125 g ai/ha
[26] = 125 g ai/ha, postemergence, 0 to 100 scale, 0 no effect, 100 complete control
[27] = Postemergence, 500 g ai/ha, visual 0 to 100 scale (0 no effect, 100 complete control)

CCc1ncn(-c2ccc(C)c(C(=O)N3C[C@H](COC)Oc4c(Cl)cccc43)c2)n1 [Compound 265]
100: Plant response rating, Pigweed, Palmer (pigweed, palmer [2]; [24]) | Pigweed, Palmer plant response rating (pigweed, palmer [2]; [25]) | Plant response rating, Galium (galium; [26]) | Plant response rating, Galium (galium; [27]) | Plant response rating, Barnyardgrass (barnyardgrass [6]; [27]) | Plant response rating, Kochia (kochia [8]; [27]) | Plant response rating, Soybean (soybean [13]; [26]) | Plant response rating, Soybean (soybean [13]; [27]) | Plant response rating, Pigweed, Palmer (pigweed, palmer [16]; [27]) | Plant response rating, Foxtail, Green (green foxtail [18]; [24]) | Foxtail, Green plant response rating (green foxtail [18]; [25])
60: Oat, Wild plant response rating (oat, wild [1]; [25]) | Plant response rating, Corn (corn [4]; [26]) | Plant response rating, Horseweed (horseweed; [27])
40: Plant response rating, Horseweed (horseweed; [26]) | Plant response rating, Wheat (wheat [20]; [26])
50: Ragweed plant response rating (ragweed [7]; [25])
30: Corn plant response rating (corn [3]; [25]) | Plant response rating, Barnyardgrass (Flood) (barnyardgrass [15]) | Plant response rating, Oat, Wild (oat, wild [22]; [26])
75: Plant response rating, Ducksalad (Flood) (ducksalad)
80: Plant response rating, Wheat (wheat [9]; [24]) | Ryegrass, Italian plant response rating (ryegrass, Italian [10]; [25]) | Kochia plant response rating (kochia [11]; [25]) | Plant response rating, Ryegrass, Italian (ryegrass, Italian [19]; [26]) | Plant response rating, Oat, Wild (oat, wild [22]; [27]) | Plant response rating, Ragweed (ragweed [23]; [26])
70: Plant response rating, Corn (corn [4]; [27]) | Plant response rating, Barnyardgrass (barnyardgrass [6]; [26]) | Plant response rating, Ragweed (ragweed [7]; [24]) | Wheat plant response rating (wheat [9]; [25]) | Soybean plant response rating (soybean [12]; [25]) | Plant response rating, Pigweed, Palmer (pigweed, palmer [16]; [26]) | Plant response rating, Wheat (wheat [20]; [27]) | Blackgrass plant response rating (blackgrass [21]; [25])
25: Plant response rating, Rice (Flood) (rice)
90: Plant response rating, Oat, Wild (oat, wild [1]; [24]) | Plant response rating, Corn (corn [3]; [24]) | Plant response rating, Barnyardgrass (barnyardgrass [5]; [24]) | Barnyardgrass plant response rating (barnyardgrass [5]; [25]) | Plant response rating, Kochia (kochia [8]; [26]) | Plant response rating, Ryegrass, Italian (ryegrass, Italian [10]; [24]) | Plant response rating, Kochia (kochia [11]; [24]) | Plant response rating, Sedge, Umbrella (Flood) (sedge, umbrella) | Plant response rating, Soybean (soybean [12]; [24]) | Plant response rating, Blackgrass (blackgrass [14]; [26]) | Plant response rating, Blackgrass (blackgrass [14]; [27]) | Plant response rating, Foxtail, Green (green foxtail [17]; [26]) | Plant response rating, Foxtail, Green (green foxtail [17]; [27]) | Plant response rating, Ryegrass, Italian (ryegrass, Italian [19]; [27]) | Plant response rating, Blackgrass (blackgrass [21]; [24]) | Plant response rating, Ragweed (ragweed [23]; [27])
